In PubChem BioAssay (NCI):
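In this assay, cells in 96-well plates receive the compound at five concentrations for 48 hours. Endpoints are linearly interpolated between the surrounding concentrations. At the GI50, growth is halved. TGI is the concentration that stops growth completely.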

Key:
Assay in all cases: NCI anticancer screen, dose series, 48 h
OVCAR-4 ovarian = tested on: OVCAR-4 ovarian
HL-60(TB) leukemia = tested on: HL-60(TB) leukemia
HS 578T breast = tested on: HS 578T breast
MOLT-4 leukemia = tested on: MOLT-4 leukemia
SF-295 CNS = tested on: SF-295 CNS
HCT-15 colon = tested on: HCT-15 colon
MALME-3M melanoma = tested on: MALME-3M melanoma
HCT-116 colon = tested on: HCT-116 colon
SF-539 CNS = tested on: SF-539 CNS
SW-620 colon = tested on: SW-620 colon
MDA-MB-231 breast = tested on: MDA-MB-231 breast
T-47D breast = tested on: T-47D breast
DU-145 prostate = tested on: DU-145 prostate
LOX IMVI melanoma = tested on: LOX IMVI melanoma
OVCAR-3 ovarian = tested on: OVCAR-3 ovarian
SK-MEL-5 melanoma = tested on: SK-MEL-5 melanoma
MCF7 breast = tested on: MCF7 breast
NCI-H460 lung = tested on: NCI-H460 lung
SK-MEL-28 melanoma = tested on: SK-MEL-28 melanoma
COLO 205 colon = tested on: COLO 205 colon
HCC-2998 colon = tested on: HCC-2998 colon
SK-OV-3 ovarian = tested on: SK-OV-3 ovarian
SNB-75 CNS = tested on: SNB-75 CNS
K-562 leukemia = tested on: K-562 leukemia
UO-31 renal = tested on: UO-31 renal
KM12 colon = tested on: KM12 colon
OVCAR-8 ovarian = tested on: OVCAR-8 ovarian
PC-3 prostate = tested on: PC-3 prostate
NCI-H23 lung = tested on: NCI-H23 lung
NCI-H522 lung = tested on: NCI-H522 lung
HOP-92 NSCLC = tested on: HOP-92 NSCLC
SN12C renal = tested on: SN12C renal
EKVX NSCLC = tested on: EKVX NSCLC
TK-10 renal = tested on: TK-10 renal
UACC-62 melanoma = tested on: UACC-62 melanoma
CAKI-1 renal = tested on: CAKI-1 renal
MDA-MB-435 = tested on: MDA-MB-435
UACC-257 melanoma = tested on: UACC-257 melanoma
NCI/ADR-RES ovarian = tested on: NCI/ADR-RES ovarian
RPMI-8226 leukemia = tested on: RPMI-8226 leukemia
A549 NSCLC = tested on: A549 NSCLC
786-0 renal = tested on: 786-0 renal
SNB-19 CNS = tested on: SNB-19 CNS
OVCAR-5 ovarian = tested on: OVCAR-5 ovarian
SK-MEL-2 melanoma = tested on: SK-MEL-2 melanoma
NCI-H226 lung = tested on: NCI-H226 lung
IGROV1 ovarian = tested on: IGROV1 ovarian
U251 CNS = tested on: U251 CNS
CCRF-CEM leukemia = tested on: CCRF-CEM leukemia
HOP-62 NSCLC = tested on: HOP-62 NSCLC
HT29 colon = tested on: HT29 colon
M14 melanoma = tested on: M14 melanoma
ACHN renal = tested on: ACHN renal

## C=C(C)C(C1C=C(CCC(C=O)=C(C)C)C(=O)O1)C1(OC)C=C(C)C(=O)O1 (stereo unspecified)
OVCAR-4 ovarian
  GI50: > 100 µM
  TGI: > 100 µM
HL-60(TB) leukemia
  GI50: > 100 µM
  TGI: > 100 µM
HS 578T breast
  GI50: > 100 µM
  TGI: > 100 µM
MOLT-4 leukemia
  GI50: 34.8 µM
  TGI: > 100 µM
SF-295 CNS
  GI50: > 100 µM
  TGI: > 100 µM
HCT-15 colon
  GI50: > 100 µM
  TGI: > 100 µM
MALME-3M melanoma
  GI50: > 100 µM
  TGI: > 100 µM
HCT-116 colon
  GI50: 49.5 µM
  TGI: > 100 µM
SF-539 CNS
  GI50: > 100 µM
  TGI: > 100 µM
SW-620 colon
  GI50: 39.6 µM
  TGI: > 100 µM
MDA-MB-231 breast
  GI50: > 100 µM
  TGI: > 100 µM
T-47D breast
  GI50: 25.8 µM
  TGI: > 100 µM
DU-145 prostate
  GI50: > 100 µM
  TGI: > 100 µM
LOX IMVI melanoma
  GI50: 39.6 µM
  TGI: > 100 µM
OVCAR-3 ovarian
  GI50: > 100 µM
  TGI: > 100 µM
SK-MEL-5 melanoma
  GI50: 71.4 µM
  TGI: > 100 µM
MCF7 breast
  GI50: 7.6 µM
  TGI: 30.3 µM
NCI-H460 lung
  GI50: 12.5 µM
  TGI: 28.8 µM
SK-MEL-28 melanoma
  GI50: > 100 µM
  TGI: > 100 µM
COLO 205 colon
  GI50: 63.6 µM
  TGI: > 100 µM
HCC-2998 colon
  GI50: > 100 µM
  TGI: > 100 µM
SK-OV-3 ovarian
  GI50: > 100 µM
  TGI: > 100 µM
SNB-75 CNS
  GI50: > 100 µM
  TGI: > 100 µM
K-562 leukemia
  GI50: 73.2 µM
  TGI: > 100 µM
UO-31 renal
  GI50: 97.1 µM
  TGI: > 100 µM
KM12 colon
  GI50: > 100 µM
  TGI: > 100 µM
OVCAR-8 ovarian
  GI50: > 100 µM
  TGI: > 100 µM
PC-3 prostate
  GI50: > 100 µM
  TGI: > 100 µM
NCI-H23 lung
  GI50: 91.3 µM
  TGI: > 100 µM
NCI-H522 lung
  GI50: > 100 µM
  TGI: > 100 µM
HOP-92 NSCLC
  GI50: > 100 µM
  TGI: > 100 µM
SN12C renal
  GI50: > 100 µM
  TGI: > 100 µM
EKVX NSCLC
  GI50: > 100 µM
  TGI: > 100 µM
TK-10 renal
  GI50: > 100 µM
  TGI: > 100 µM
UACC-62 melanoma
  GI50: 95.4 µM
  TGI: > 100 µM
CAKI-1 renal
  GI50: > 100 µM
  TGI: > 100 µM
MDA-MB-435
  GI50: > 100 µM
  TGI: > 100 µM
UACC-257 melanoma
  GI50: > 100 µM
  TGI: > 100 µM
NCI/ADR-RES ovarian
  GI50: > 100 µM
  TGI: > 100 µM
RPMI-8226 leukemia
  GI50: > 100 µM
  TGI: > 100 µM
A549 NSCLC
  GI50: > 100 µM
  TGI: > 100 µM
786-0 renal
  GI50: > 100 µM
  TGI: > 100 µM
SNB-19 CNS
  GI50: > 100 µM
  TGI: > 100 µM
OVCAR-5 ovarian
  GI50: > 100 µM
  TGI: > 100 µM
SK-MEL-2 melanoma
  GI50: > 100 µM
  TGI: > 100 µM
NCI-H226 lung
  GI50: > 100 µM
  TGI: > 100 µM
IGROV1 ovarian
  GI50: 92.6 µM
  TGI: > 100 µM
U251 CNS
  GI50: 74.7 µM
  TGI: > 100 µM
CCRF-CEM leukemia
  GI50: 25.3 µM
  TGI: > 100 µM
HOP-62 NSCLC
  GI50: > 100 µM
  TGI: > 100 µM
HT29 colon
  GI50: 57.9 µM
  TGI: > 100 µM
M14 melanoma
  GI50: > 100 µM
  TGI: > 100 µM
ACHN renal
  GI50: > 100 µM
  TGI: > 100 µM
